Where only a bound is given, the exact number is not on record here.

Take `COc1ccc(CCC(N[C@@H](C)C(=O)N(CC(=O)O)C2Cc3ccccc3C2)C(=O)O)cc1OC` (some centres undefined): the melting point (in general, the temperature, or range, at which the solid turns liquid) lay within 160 to 165 °C.

As for `S=C(Nc1ccc(Cl)cn1)N[C@@H]1C[C@@H]1c1ccccc1`, the melting point was in the range of 190 to 191 °C.

Take `O=[N+]([O-])c1ccc2c(c1)S(=O)(=O)c1cc(F)ccc1-2`: the melting point fell in the range of 275 to 279 °C.

For the molecule `Nc1cc(C(=O)NC2CC2)n(-c2nc(Cl)nc3ccoc23)n1`, the melting point was 219 °C.

In turn, `CCOC(=O)c1c(C)cc2cnc(-c3ccccc3F)nc2c1C` yielded a melting point of 98 to 100 °C.

`CCOC(=O)C(=[N+]=[N-])C(=O)c1cc(I)cnc1Cl` yielded a melting point of 84 to 85 °C.

`Cc1cc(CCC(=O)OC(C)(C)C)cc(-c2nc(=O)c3ccccc3s2)n1` displayed a melting point of 129 to 130 °C.

`CN1C(=O)CC(=O)N(C2CCCCC2)C1=O` registered a melting point of 81 to 82 °C.

Regarding `CNC(=O)Nc1cc(OC)c(-c2ccc(C[C@H](NC(=O)c3c(Cl)cccc3Cl)C(=O)O)cc2)c(OC)c1`, the melting point was in the range of 206 to 207 °C.

On to `COCCNC(=O)c1ccnc(-c2cccc3cc(Cc4cccc(C(F)(F)F)c4)sc23)c1F`, for which the melting point lay within 94 to 95 °C.

Take `O=C1CC(=O)C(CCCCCCCO)C1=O` (centres undefined): the melting point fell in the range of 121 to 124 °C.

For `CC(C)=NOCc1nc2c(N)nc3ccccc3c2s1`, the melting point was in the range of 152 to 153 °C.

Molecule `Cn1cnc(Cc2cccc3c2OC(C)(C)OC3)c1` had a melting point of 67 to 72 °C.

The molecule `CNC(=S)C1(c2ccccn2)CCCCS1` (centres undefined) came in with a melting point of 153 °C.

Regarding `CCOC(=O)c1sc(Oc2ccccc2)nc1C(F)(F)F`, the melting point is 52 to 54 °C.

`Ic1ccc2c(c1)ncn2-c1cccc(-c2ccccn2)c1` showed a melting point of 157 to 158 °C.

As to `CCOC(=O)c1ccc(C2CC(=O)N(C)C2C(O)c2ccc(-c3ccccc3)s2)cc1` (centres undefined), the melting point fell in the range of 177 to 179 °C.

In turn, `Clc1cc(Nc2ccc(N3CCOCC3)cc2)ncn1` registered a melting point of 165 to 166 °C.

Consider `O=C(c1cccc(-c2cc3ccccc3n2S(=O)(=O)c2ccccc2)c1)c1cc2ccccc2n1S(=O)(=O)c1ccccc1`, for which the melting point is 189 to 190 °C.

The molecule `COc1ccc(C(=O)CCC(=O)N[C@@H](Cc2ccccc2)C(=O)O)cc1` yielded a melting point of 131 to 133 °C.

As for `O=S(CCCCCOc1ccc(C2=C(c3ccccc3)CCCc3ccccc32)cc1)CCCC(F)(F)C(F)(F)F` (centres undefined), the melting point is 114 to 116 °C.

Molecule `COc1ccc(C(=O)C2Cc3ccc(O)c(O)c3C2=O)cc1` (centres undefined) yielded a melting point of 191 to 193 °C.

`O=C(O)C1CCCc2c(-c3ccc(Cl)cc3)noc2CC1` (centres undefined) returned a melting point of 147 to 150 °C.

As to `CC(C)(O)CNC(=O)CC1CN=C(c2cc3cc(Oc4ccc(S(C)(=O)=O)nc4)ccc3[nH]2)S1` (centres undefined), the melting point was in the range of 178 to 179 °C.

The molecule `CNC(=S)CC(=S)N(c1c(C)cccc1C)C(C)C(=O)OC` (centres undefined) had a melting point of 119 to 121 °C.

`CCC1CC(N)=NN1c1ccccc1` (centres undefined) had a melting point of 123 to 125 °C.

`COc1nc(C)cnc1NS(=O)(=O)c1cccnc1-c1ccc(C(C)(C)C)cc1` registered a melting point of 150 to 151 °C.

Molecule `O=C(CC(CC1CCCCC1)C(=O)O)c1ccco1` (centres undefined) returned a melting point of 91 to 94 °C.

`O=C1Nc2ccc(I)cc2C1=NNC(=O)c1ccc(OC(F)(F)F)cc1` had a melting point of 306 °C.

As to `CCn1c(=O)c2[nH]c(/C=C/c3cccc(F)c3)nc2n(CC)c1=O`, the melting point was over 270 °C.

For `CC(C)(C)c1ccc(CCC(O)CC2CCCC2)cc1NC(=O)CC1c2ccccc2Oc2ccccc21` (centres undefined), the melting point lay in the range of 142 to 143 °C.

`COc1ncnc(Cl)c1[N+](=O)[O-]` displayed a melting point of 65 °C.

As to `CCCCCCCCC(SCCCCCC)C(=O)Nc1cccc2nnccc12` (centres undefined), the melting point lay within 54 to 56 °C.

Take `CCOCOc1ccc(-c2ccc(C(F)(F)F)cc2)cc1Sc1cc(-c2ccc(C(F)(F)F)cc2)ccc1OCOCC`: the melting point fell in the range of 61 to 62 °C.

Consider `NC(=O)Cc1ccc2[nH]cc(CCN3C(=O)c4ccccc4C3=O)c2c1`, for which the melting point was in the range of 191 to 193 °C.

As to `Cc1cc(C)nc(C(=O)c2[nH]c3ccc(Cl)cc3c2CC(=O)O)c1`, the melting point was in the range of 233 to 235 °C.

Turning to `O=C(O)c1ccc(=O)n(CCNC(=O)c2cccnc2)c1`, the melting point was over 295 °C.

`O=C(O)Cc1cc(C(=O)C=Cc2ccc(F)cc2)ccc1O` came in with a melting point of 212 °C.

Molecule `COc1ccccc1C1C2CCC(C2)C12CCC(=O)N2` (centres undefined) registered a melting point of 260 °C.

With `CC=C(C)C1CCC2C3CC(=O)C4=CC(=O)CCC4(C)C3CCC12C` (centres undefined), the melting point lay within 172 to 178 °C.

As to `O=CNCCOc1cccc2c1c1ccccc1n2Cc1ccccc1`, the melting point fell in the range of 161 to 162 °C.

`CC(C)(C)c1ccc([N+]([O-])=S)cc1` displayed a melting point of 40 to 43 °C.

`Cc1sc(C)c(CC#N)c1CC#N`: the melting point is 124 to 126 °C.

Regarding `Cc1ccc(Cl)cc1NC(=O)NCC1(c2ccccc2)CCCCC1`, the melting point lay in the range of 200 to 202 °C.

Turning to `Cc1c(-c2ccc(OCc3ccccc3)cc2)n(Cc2ccc(OCCCN3CCCCC3)cc2)c2ccc(OCc3ccccc3)cc12`, the melting point lay within 104 to 106 °C.

Regarding `CC(=O)c1cccc(NC(=O)C2CC2)c1`, the melting point lay in the range of 136 to 137 °C.

Take `CC(C)(C)c1cc2c(c(C(C)(C)C)c1)O[PH](=O)Oc1c(cc(C(C)(C)C)cc1C(C)(C)C)C2`: the melting point came to 164 °C.

Turning to `CCN(CC)C(=O)N1CCc2cc(S(=O)(=O)N3C(=O)C(NCCC4CCN(C(=O)OC(C)(C)C)CC4)(c4ccccc4Cl)c4cc(Cl)ccc43)ccc21` (centres undefined), the melting point was 139 °C.

`CN1C(=O)C2C3C=CC(C3)C2(c2ccc(F)c(F)c2)C1=O` (centres undefined) displayed a melting point of 116 to 120 °C.

For `COC(=O)CN(C(=O)c1ccc(Cl)cc1)c1ccccc1CCC#N`, the melting point fell in the range of 127 to 128 °C.

The molecule `N#Cc1ccc(OCc2ccncc2)cc1OC(C(=O)O)c1ccccc1` (racemic) yielded a melting point of 218 to 220 °C.

As for `O=C1c2ccccc2C(=O)N1Nc1ccccc1`, the melting point stood at 180 °C.

`O=C(O)CCCCCCCn1cc(-c2ccccc2)c(-c2ccccc2)n1` came in with a melting point of 108 to 110 °C.

`C[C@@H]1C(=O)C[C@H]2C[C@@H]1OO[C@@]2(C)/C=C\c1ccc(F)cc1` registered a melting point of 84 °C.

In the case of `CC1(C(=O)c2c[nH]c3ncc(Br)nc23)CCCCC1`, the melting point lay in the range of 198 to 199 °C.

As to `CC(=O)c1cc2c(s1)S(=O)(=O)CCc1cc(=O)n(-c3ccc(Cl)cc3)nc1-2`, the melting point was in the range of 272 to 273 °C.

`Nc1c(Br)cc(C2=NNC(=O)Cc3cc4c(cc32)OCO4)cc1Br` showed a melting point of 162 to 165 °C.

On to `CCCn1nc(C(N)=O)cc1CC(C)C`, for which the melting point was 141 to 142 °C.

As for `Nc1nnc2c3c(c(Cl)nn12)CCCC3`, the melting point lay within 224 to 225 °C.

`CCCCOc1ccc(C=CC(=O)NCCN(O)C(N)=O)cc1`: the melting point fell in the range of 127 to 129 °C.

In the case of `CC(=O)NCCOc1ccc(-c2ccc(=O)n(Cc3ccc(Cl)cc3F)c2)cc1`, the melting point is 153 °C.

Molecule `COc1cc(CNc2ccc(C)cc2)cc(OC)c1OC` returned a melting point of 94 to 96 °C.

Consider `O=C(CCCC1CCCCC1)C1=C(O)COC1=O`, for which the melting point was 38 to 42 °C.

With `Cc1ccc(S(=O)(=O)Oc2n[nH]c(CO)c2C(C)(C)C)cc1`, the melting point was 62 to 65 °C.

In the case of `CCCCc1cc2cc(NS(C)(=O)=O)ccn2c1C(=O)c1ccc(OCCCN(CCCC)CCCC)cc1`, the melting point lay within 87 to 88 °C.

For `N#Cc1ccc(N2CCC(F)C2)c2ccsc12` (centres undefined), the melting point was in the range of 151 to 152 °C.

`ClCCOc1cc(-c2cccs2)n[nH]1` registered a melting point of 134 to 138 °C.

In turn, `COCCOc1ccc(/C=C/C(=O)O)c(OCC2CCCO2)c1` (centres undefined) registered a melting point of 106 to 108 °C.

On to `Fc1ccc(-c2ncn(C3CCNCC3)c2-c2ccnc(Oc3ccc4c(c3)OCO4)n2)cc1`, for which the melting point lay within 131 to 132 °C.

For the molecule `Cc1ccc(Cc2nc3cc(-c4ccc(-c5ccccc5)cc4)c(Cl)cc3[nH]2)cc1P(=O)(O)O`, the melting point was over 220 °C.

The molecule `O=[N+]([O-])c1ccc(-n2ccnn2)cc1` showed a melting point of 205 to 206 °C.

For `Cc1ccc(COc2ncc(F)c(NCO)n2)cc1`, the melting point is 97 to 98 °C.

As to `Cc1cc2cc(CN3CCOCC3)cnc2cc1NC(=O)c1ccc(-c2ccc(F)cc2)cc1`, the melting point lay within 153 to 158 °C.

`CC1CC(=O)NN=C1c1ccc2c(c1)N=CS2=O` (centres undefined): the melting point was 317 to 319 °C.

With `CCOC(=O)C1(c2ccc3c(c2)OCC(Cc2ccc(-c4ccccc4)cc2)C3=O)CCCC1` (centres undefined), the melting point was 50 to 56 °C.

For `Cc1nc2ccccc2c(NCCO)c1Br`, the melting point was in the range of 154 to 155 °C.

Molecule `Cc1cc(N2CCCC2)cc2c1C(=O)OC2=O` displayed a melting point of 222 to 225 °C.

Take `CCNC(=O)Nc1nc2cc(-c3cccnc3)cc(OCCN(C)C)n2n1`: the melting point was in the range of 200 to 202 °C.

In turn, `Nc1nnc(N2CCN(CCOc3ccc(Br)cc3)CC2)[nH]1` returned a melting point of 166 to 167 °C.

In turn, `O=C1Nc2cc(Cl)ccc2Nc2ccsc21` displayed a melting point of 255 to 256 °C.

As to `O=C(CCCN1CCC(NC(=O)c2ccccc2)CC1)c1ccc(Cl)cc1`, the melting point is 243 to 244 °C.

On to `C=CCOC(=O)CCCS(=O)C1CC(=O)N1CC(=O)NCCCCCCc1ccc(F)cc1` (centres undefined), for which the melting point is 95 to 96 °C.

Consider `COc1cc(OC)c2c(=O)[nH]c(-c3cccc(N4CCN(CCO)CC4)n3)nc2c1`, for which the melting point lay within 175 to 177 °C.

`Cc1oc(-c2ccc(C(N)=O)cc2)nc1CCOc1ccc(OC(C)(C)C(=O)O)cc1` showed a melting point of 126 to 127 °C.

For the molecule `COCC(C)Nc1nccc(Oc2ccc(NC(=O)c3cc(F)cc(N4CCCCC4)c3)c3ccccc23)n1` (centres undefined), the melting point is 94 to 95 °C.

Molecule `CCOC(=O)c1cc(-n2c(=O)cc(C)n(C)c2=O)ccc1Cl` had a melting point of 120 to 122 °C.

On to `ON=Cc1cc(-c2ncc(C(F)(F)F)cc2Cl)ccc1Cl`, for which the melting point was in the range of 173 to 174 °C.

For `O=P(c1ccccc1)(c1ccccc1)c1ccccc1C1OCCO1`, the melting point is 161 to 162 °C.

`CC1(c2ccccc2)SC(=S)N(Nc2ccccc2)C1=N` (centres undefined) yielded a melting point of 118 to 119 °C.
